These results are taken from the NIST ThermoML archive (doi:10.1016/j.jct.2009.05.008).

For data set [1] the following is noted: 298.15 K; 101.33 kPa; Liquid; Vibrating tube method.
Data set [2] is described as follows: refractive index (Na D-line) (dimensionless). The settings on record: 298.15 K; 101.33 kPa; Liquid; Standard Abbe refractometry.

Each structure is given as a SMILES string. ± gives the expanded uncertainty stated by the source.

In the case of `CCOS(=O)(=O)[O-].CC[n+]1cccc(C)c1` [1-ethyl-3-methylpyridinium ethylsulfate], in data set [1], the mass density amounted to 1219.61 ± 1.1 kg/m3. Besides, the refractive index in data set [2] was found to be 1.50591 ± 0.00075.

The mass density is mass per unit of volume. The refractive index is a measure of how strongly the sample bends light.
